According to patent publication US20260069599A1, “INHIBITORS OF BROMODOMAIN-CONTAINING PROTEIN 4 AND PHOSPHOINOSITIDE 3-KINASE” (Board of Regents of the University of Nebraska, priority 2022, published 2026):
Entries after “also recorded” stand apart in the source; their conditions may differ.

Key:
[1] = tested on: MB cells (DAOY and HD-MB03); test: Colony formation (clonogenic) assay; assay type: cell-based, human; conditions: 48 hours treatment, 14-day incubation, both cell lines
Experimental: Approximately 500 MB cells were seeded overnight in 6 well plates and treated with MDP5 at IC50 for the colony formation assay. After 48 hours of incubation, the media was replaced by fresh media and allowed cells to grow for 2 weeks. Then, cells were fixed into 10% formalin and stained with a 0.5% solution of crystal violet dye in 20% methanol. After taking pictures, the colonies were dissolved in 10% acetic acid solution to measure the optical density.
Colony formation ability, cell cycle analysis, and cell apoptosis assay were performed in MB cells in presence of drugs as described (Kumar et al. (2021) Biomaterials 278:121138). For the colony formation assay, after taking images, the colonies were dissolved in 10% acetic acid solution to measure the optical density (OD).

MB cells = test: RT-qPCR of target genes; assay type: cell-based, human; conditions: RT-PCR
Experimental: Whole RNAs in cells after treatments were extracted using an RNA extraction kit (RNAeasy, Qiagen) to detect mRNA expression. cDNA templates were synthesized by reverse transcribing the RNA using a High-Capacity RNA-to-cDNA™ Kit (Thermo Fisher). The final RT-qPCR reaction mixture was used consisting of a total volume 10 μl containing […] SYBR Green master mix, 0.5 μl of each primer (10 μM) (Table 1), 2 μl of the cDNA template, and 3.5 μl RNase-free H2O. The relative expression level of the targeted gene was measured with Lightcycler 480 (Roche). The gene expression levels were calculated according to the 2^−ΔΔCq method using β-actin as the internal reference gene. Each assay was repeated≥3 times.

ONS-76 cells = test: CD15+ tumor propagating cell population by FACS; assay type: cell-based; conditions: 5.0 μM, 48 hours, vs control
Experimental: The tumor propagating cell population in ONS-76 cells was identified based on CD15+ staining by fluorescence-activated cell sorting (FACS) analysis. […] Then, cells were trypsinized and 1×10^6 cells stained with a 5 μL aliquot of APC-CD15 antibody (BioLegend; 301,908) and analyzed with flow cytometry (BD, LSR Fortessa).

O=c1cc(N2CCOCC2)oc2c(-c3ccc4c(c3)OCCO4)cccc12 [MDP5, 8-(2,3-dihydrobenzo [b][1,4]dioxin-6-yl)-2-morpholino-4H-chromen-4-one]
colony formation [1]: significant decrease in colony formation potential; also recorded: lower number of colonies in both cell lines; also recorded: significantly decreased the colony formation capacity
BCL2 mRNA expression (MB cells; MB cells): significantly reduced
cyclin D1 gene expression (MB cells; vs control): decreased significantly
percentage of CD15+ cell population (ONS-76 cells): declined as compared to control cells
